One block for each compound: values may come before it. Active and inactive are the calls of the source.
What was measured:
Cytochrome P450 1A2 = biological target: T1, Cytochrome P450 1A2 (Homo sapiens, UniProt P05177);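 also: PubChem cytochrome P450 panel assay, CYP1A2 panel member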
T1 sequence (P05177 whole entry): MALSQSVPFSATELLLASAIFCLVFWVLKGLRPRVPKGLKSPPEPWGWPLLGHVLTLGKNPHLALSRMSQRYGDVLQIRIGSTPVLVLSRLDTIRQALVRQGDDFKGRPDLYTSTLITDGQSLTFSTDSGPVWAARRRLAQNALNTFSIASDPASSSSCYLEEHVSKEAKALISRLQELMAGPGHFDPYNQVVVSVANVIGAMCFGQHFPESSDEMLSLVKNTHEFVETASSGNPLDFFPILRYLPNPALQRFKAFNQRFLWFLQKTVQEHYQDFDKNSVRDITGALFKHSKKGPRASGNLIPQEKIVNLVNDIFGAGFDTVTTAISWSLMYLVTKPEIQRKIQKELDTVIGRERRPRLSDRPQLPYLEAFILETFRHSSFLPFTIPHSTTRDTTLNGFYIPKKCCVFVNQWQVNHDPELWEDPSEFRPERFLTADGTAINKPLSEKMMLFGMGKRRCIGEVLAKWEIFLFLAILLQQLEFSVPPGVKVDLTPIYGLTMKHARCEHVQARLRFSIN

[1] = HEK-293T viability loss, compound-treated – cell-based, uHTS hits, cytotoxicity control for B/T-cell NF-kB inhibitor project, dose response (AID 489019); assay type: functional;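 also: IC50 reflects cytotoxicity as loss of cell viability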
[2] = biological target: T2, Apoptotic protease-activating factor 1 (Homo sapiens, UniProt O14727); assay type: functional
T2 sequence (O14727 whole entry): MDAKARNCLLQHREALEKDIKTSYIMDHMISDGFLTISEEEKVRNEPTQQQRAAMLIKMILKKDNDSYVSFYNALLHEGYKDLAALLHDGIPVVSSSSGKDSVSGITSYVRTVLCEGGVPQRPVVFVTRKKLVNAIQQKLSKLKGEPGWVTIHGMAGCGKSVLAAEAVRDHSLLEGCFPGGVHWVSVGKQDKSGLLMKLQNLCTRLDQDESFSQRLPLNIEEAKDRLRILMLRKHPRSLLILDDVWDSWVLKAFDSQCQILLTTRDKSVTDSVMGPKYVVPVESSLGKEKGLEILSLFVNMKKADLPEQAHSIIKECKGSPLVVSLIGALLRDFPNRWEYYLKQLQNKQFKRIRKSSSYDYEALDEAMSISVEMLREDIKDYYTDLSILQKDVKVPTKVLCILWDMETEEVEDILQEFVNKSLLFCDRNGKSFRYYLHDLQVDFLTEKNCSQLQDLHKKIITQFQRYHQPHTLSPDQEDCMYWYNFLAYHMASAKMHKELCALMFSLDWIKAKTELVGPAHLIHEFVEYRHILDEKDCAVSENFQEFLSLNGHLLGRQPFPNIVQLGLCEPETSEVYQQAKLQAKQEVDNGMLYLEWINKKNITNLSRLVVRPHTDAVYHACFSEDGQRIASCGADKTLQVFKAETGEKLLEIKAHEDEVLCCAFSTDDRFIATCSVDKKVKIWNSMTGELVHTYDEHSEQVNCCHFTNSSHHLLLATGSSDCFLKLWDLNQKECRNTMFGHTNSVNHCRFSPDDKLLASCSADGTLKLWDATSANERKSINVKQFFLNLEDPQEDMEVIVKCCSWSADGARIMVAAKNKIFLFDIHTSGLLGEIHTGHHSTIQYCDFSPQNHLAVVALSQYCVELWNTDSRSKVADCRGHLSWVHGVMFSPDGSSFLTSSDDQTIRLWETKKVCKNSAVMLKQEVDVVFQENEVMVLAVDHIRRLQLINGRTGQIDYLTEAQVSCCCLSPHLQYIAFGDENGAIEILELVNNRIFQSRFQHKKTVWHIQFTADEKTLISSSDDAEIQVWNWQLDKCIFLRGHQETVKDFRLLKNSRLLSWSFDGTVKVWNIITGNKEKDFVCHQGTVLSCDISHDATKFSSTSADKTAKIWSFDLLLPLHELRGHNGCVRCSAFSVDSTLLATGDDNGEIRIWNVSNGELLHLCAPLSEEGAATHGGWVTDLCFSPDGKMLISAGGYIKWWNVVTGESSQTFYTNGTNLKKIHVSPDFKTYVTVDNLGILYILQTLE

HEK293 = assay: optical interference in Abeta FP readout, dose response, artefact control for IDE activator project, biochemical, fluorescence polarization (AID 588442); assay type: functional, cell-based; details: Homo sapiens
[3] = biological target: Serine/threonine-protein kinase PLK4 (Homo sapiens, UniProt O00444); assay type: functional;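 also: PLK4 measured as one member of a kinome-wide kinase profiling panel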
[4] = biological target: Tyrosine-protein kinase SYK (Homo sapiens, UniProt P43405); assay type: functional
[5] = biological target: Fibroblast growth factor receptor 1 (Homo sapiens, UniProt P11362); assay type: functional
Chain of Fibroblast growth factor receptor 1 (P11362 whole entry): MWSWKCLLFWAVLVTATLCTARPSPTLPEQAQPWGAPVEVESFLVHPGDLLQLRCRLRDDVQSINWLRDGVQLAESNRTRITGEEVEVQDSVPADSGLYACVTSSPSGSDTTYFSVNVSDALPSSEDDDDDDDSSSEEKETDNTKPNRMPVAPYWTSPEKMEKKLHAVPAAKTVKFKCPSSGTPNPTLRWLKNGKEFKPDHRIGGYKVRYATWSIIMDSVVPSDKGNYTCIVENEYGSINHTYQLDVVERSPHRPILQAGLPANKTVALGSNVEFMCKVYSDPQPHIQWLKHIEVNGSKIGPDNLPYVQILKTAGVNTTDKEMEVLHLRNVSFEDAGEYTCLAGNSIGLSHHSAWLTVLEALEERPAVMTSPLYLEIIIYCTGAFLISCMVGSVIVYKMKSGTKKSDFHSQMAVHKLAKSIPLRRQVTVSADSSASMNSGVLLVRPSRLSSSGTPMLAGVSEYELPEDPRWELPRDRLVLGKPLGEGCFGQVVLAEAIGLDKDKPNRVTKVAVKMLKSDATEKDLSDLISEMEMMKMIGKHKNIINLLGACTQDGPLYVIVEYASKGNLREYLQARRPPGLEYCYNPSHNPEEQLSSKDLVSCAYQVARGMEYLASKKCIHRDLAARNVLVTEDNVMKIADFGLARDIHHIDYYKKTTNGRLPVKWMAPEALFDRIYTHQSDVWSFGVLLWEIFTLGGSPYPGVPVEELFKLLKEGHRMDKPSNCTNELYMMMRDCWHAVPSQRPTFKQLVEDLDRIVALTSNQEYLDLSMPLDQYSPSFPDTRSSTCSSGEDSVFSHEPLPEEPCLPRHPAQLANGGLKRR

[6] = biological target: MAP/microtubule affinity-regulating kinase 3 (Homo sapiens, UniProt P27448); assay type: functional;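 also: MARK3 affinity measured as one member of a kinome panel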
Chain of MAP/microtubule affinity-regulating kinase 3 (P27448 whole entry): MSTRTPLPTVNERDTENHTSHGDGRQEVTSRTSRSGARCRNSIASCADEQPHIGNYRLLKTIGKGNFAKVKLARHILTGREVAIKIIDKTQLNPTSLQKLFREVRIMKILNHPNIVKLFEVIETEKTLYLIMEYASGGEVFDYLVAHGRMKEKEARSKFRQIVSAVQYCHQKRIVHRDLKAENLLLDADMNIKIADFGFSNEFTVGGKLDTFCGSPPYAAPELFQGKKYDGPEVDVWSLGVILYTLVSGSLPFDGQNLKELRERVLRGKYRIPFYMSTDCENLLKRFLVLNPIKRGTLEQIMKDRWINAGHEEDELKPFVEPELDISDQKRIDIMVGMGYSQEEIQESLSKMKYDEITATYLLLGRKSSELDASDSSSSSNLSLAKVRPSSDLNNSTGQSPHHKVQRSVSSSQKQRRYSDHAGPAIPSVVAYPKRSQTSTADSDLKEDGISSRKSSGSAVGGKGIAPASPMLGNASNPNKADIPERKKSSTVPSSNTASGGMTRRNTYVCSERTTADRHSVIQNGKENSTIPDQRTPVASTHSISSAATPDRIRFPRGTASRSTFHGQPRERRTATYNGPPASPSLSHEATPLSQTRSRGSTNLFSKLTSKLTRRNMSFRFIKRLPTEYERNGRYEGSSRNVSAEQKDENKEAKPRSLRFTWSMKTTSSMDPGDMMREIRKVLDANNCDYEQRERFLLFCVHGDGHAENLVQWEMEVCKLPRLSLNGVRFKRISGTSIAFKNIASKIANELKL

[7] = biological target: Dual specificity tyrosine-phosphorylation-regulated kinase 3 (Homo sapiens, UniProt O43781); assay type: functional;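 also: measured as one member of a broad kinase panel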
Chain of Dual specificity tyrosine-phosphorylation-regulated kinase 3 (O43781 whole entry): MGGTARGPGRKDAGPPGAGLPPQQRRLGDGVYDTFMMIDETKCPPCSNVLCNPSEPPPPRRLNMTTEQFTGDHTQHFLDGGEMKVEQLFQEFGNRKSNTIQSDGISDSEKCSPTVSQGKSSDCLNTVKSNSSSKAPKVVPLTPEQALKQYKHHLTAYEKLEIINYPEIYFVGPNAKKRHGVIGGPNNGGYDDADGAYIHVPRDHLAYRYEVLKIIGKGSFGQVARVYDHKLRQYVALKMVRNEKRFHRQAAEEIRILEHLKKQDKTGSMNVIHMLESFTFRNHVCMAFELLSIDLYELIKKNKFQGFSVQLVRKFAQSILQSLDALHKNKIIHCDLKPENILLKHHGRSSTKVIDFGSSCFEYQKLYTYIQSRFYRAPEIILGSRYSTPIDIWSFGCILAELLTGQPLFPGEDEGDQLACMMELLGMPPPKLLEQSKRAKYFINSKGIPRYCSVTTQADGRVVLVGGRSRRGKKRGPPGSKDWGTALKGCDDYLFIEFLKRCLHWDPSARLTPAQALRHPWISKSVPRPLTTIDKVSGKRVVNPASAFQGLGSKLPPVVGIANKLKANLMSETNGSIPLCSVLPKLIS

Ephrin type-A receptor 2 = Ephrin type-A receptor 2 (Homo sapiens, UniProt P29317); assay type: functional;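 also: EPHA2 tested as one member of a kinome-wide kinase panel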
[8] = biological target: Serine/threonine-protein kinase Nek4 (Homo sapiens, UniProt P51957); assay type: functional
Chain of Serine/threonine-protein kinase Nek4 (P51957 whole entry): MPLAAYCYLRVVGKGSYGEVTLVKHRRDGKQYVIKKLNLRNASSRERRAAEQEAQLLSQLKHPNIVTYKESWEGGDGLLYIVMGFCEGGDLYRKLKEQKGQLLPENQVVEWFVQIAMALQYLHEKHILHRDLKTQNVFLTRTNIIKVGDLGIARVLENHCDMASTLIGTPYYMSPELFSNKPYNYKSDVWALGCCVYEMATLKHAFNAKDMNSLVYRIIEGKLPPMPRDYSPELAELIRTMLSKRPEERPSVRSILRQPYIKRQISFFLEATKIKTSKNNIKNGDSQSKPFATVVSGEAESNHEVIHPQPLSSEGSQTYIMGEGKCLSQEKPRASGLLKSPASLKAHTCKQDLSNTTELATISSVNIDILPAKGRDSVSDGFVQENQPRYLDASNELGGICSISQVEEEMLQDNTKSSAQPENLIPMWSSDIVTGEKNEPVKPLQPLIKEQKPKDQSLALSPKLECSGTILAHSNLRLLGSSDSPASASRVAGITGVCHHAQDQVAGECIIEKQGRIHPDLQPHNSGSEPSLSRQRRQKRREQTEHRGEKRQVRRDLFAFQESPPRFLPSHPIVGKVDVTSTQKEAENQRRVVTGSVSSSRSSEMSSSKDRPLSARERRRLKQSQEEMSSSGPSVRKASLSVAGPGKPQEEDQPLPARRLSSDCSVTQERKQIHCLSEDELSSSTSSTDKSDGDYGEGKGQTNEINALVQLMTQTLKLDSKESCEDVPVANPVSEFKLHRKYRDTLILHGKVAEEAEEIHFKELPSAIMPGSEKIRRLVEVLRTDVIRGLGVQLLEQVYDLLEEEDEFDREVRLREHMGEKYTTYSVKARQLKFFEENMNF

[9] = biological target: Homeodomain-interacting protein kinase 4 (Homo sapiens, UniProt Q8NE63); assay type: functional
Chain of Homeodomain-interacting protein kinase 4 (Q8NE63 whole entry): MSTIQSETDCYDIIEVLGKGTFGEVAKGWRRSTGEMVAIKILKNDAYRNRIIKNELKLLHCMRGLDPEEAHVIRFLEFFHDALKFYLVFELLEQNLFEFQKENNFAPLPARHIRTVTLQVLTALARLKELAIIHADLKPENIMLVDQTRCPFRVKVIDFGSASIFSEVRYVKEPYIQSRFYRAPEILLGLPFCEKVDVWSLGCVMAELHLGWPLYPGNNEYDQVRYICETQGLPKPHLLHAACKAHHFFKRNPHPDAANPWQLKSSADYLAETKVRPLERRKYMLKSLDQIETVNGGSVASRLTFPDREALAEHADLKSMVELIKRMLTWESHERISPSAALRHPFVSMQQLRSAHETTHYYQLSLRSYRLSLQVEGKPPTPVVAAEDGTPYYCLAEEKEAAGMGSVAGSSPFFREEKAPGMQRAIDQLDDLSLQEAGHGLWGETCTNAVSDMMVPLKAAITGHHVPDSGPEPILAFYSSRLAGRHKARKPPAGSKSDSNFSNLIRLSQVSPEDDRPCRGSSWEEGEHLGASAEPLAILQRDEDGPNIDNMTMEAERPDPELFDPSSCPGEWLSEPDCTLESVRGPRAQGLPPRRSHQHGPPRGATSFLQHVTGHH

[10] = biological target: Fibroblast growth factor receptor 3 (Homo sapiens, UniProt P22607); assay type: functional
[11] = biological target: Leukocyte tyrosine kinase receptor (Homo sapiens, UniProt P29376); assay: Navigating the Kinome. Panel member name: LTK; assay type: functional
Chain of Leukocyte tyrosine kinase receptor (P29376 whole entry): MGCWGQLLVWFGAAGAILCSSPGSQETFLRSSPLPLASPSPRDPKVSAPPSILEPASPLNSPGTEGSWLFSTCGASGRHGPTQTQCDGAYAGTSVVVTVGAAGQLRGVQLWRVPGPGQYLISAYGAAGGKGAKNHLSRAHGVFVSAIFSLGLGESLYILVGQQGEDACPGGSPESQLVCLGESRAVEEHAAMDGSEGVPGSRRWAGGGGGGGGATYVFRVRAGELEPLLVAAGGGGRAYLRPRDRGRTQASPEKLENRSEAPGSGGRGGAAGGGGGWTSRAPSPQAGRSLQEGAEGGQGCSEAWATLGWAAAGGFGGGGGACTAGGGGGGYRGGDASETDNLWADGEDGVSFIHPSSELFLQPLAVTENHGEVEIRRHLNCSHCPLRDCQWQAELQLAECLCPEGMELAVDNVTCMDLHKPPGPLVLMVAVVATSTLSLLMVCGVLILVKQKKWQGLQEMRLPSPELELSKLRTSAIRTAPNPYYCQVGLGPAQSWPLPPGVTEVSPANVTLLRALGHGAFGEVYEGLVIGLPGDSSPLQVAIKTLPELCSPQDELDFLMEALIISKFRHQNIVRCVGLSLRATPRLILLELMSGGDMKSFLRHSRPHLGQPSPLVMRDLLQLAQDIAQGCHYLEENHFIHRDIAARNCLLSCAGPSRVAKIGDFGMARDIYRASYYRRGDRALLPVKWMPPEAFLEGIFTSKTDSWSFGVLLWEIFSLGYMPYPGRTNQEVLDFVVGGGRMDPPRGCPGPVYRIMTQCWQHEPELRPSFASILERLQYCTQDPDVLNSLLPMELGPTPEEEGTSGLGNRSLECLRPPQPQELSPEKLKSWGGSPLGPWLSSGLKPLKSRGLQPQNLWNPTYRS

Structure (SMILES): CCC(C)n1c(NC(=O)c2ccccc2)c(C#N)c2nc3ccccc3nc21 (centres undefined)
AC50 (Cytochrome P450 1A2): 25.1 µM (inconclusive)

Structure (SMILES): CCN1/C(=C\c2ccc3ccccc3[n+]2CC)Sc2cc(C)ccc21
IC50 [1]: > 80 µM (inactive)

Structure (SMILES): CCCCCCCCCCOC(=O)C[n+]1c(COc2ccc(C)cc2)n(C)c2ccccc21
IC50 [2]: 10.8 µM (active) | EC50 (HEK293): > 55.9 µM (inactive)

Ki [3]: > 3.98 µM (inactive) | Ki [4]: > 1.58 µM (inactive) | Ki [5]: > 2.51 µM (inactive) | Ki [6]: 1 µM (active) | Ki [7]: 6.31 µM (active) | Ki (Ephrin type-A receptor 2): > 3.16 µM (inactive) | Ki [8]: > 6.31 µM (inactive) | Ki [9]: > 7.94 µM (inactive) | Ki [10]: > 2 µM (inactive) | Ki [11]: 2.51 µM (active)
Structure (SMILES): CN1CCN(c2nc(C3=C(c4c[nH]c5ccccc45)C(=O)NC3=O)c3ccccc3n2)CC1 [SOTRASTAURIN]

From ChEMBL document CHEMBL1201862, “PubChem BioAssay data set” (2004)
